From ChEMBL document CHEMBL2424554, “Synthesis of new indazole derivatives as potential antioxidant agents” (Med Chem Res, 2013) come the findings set out here.

SMILES strings stand for the structures.

What all share (assay type): functional
The nature of assay [1]: Antioxidant activity assessed as effective concentration for potassium ferric cyanide ion reducing power equivalent of 0.5 absorbance ellagic acid at 100 to 1000 ug/ml after 20 mins by FRAP assay.
A short description of assay [2]: Antioxidant activity assessed as DPPH scavenging activity after 20 mins by spectrophotometry. Details: concentration or dose not given beside the values.
A short description of assay [3]: Antioxidant activity assessed as ascorbic acid equivalent antioxidant capacity per mg sample after 90 mins by phosphomolybdenum method.

Consider `O=c1[nH][nH]c2c1C(c1ccccc1)CC(c1ccc(F)cc1)=C2` (stereo not drawn), for which the Activity in assay [1] turned out to be 0.63 mg/mL; in assay [2] it was 19.8%; in assay [3], 4.75 µM.

Consider `O=c1c2c([nH]n1-c1ccc([N+](=O)[O-])cc1[N+](=O)[O-])C=C(c1ccc(F)cc1)CC2c1ccc(Br)cc1` (stereo not drawn), for which the Activity was determined as 0.76 mg/mL in assay [1], 2.34% in assay [2] and 4.69 µM in assay [3].

Turning to `O=c1c2c([nH]n1-c1ccccc1)C=C(c1ccc(F)cc1)CC2c1ccc(Cl)cc1` (stereo not drawn), the results for the Activity in assay [1], in assay [2] and in assay [3] were 1.49 mg/mL, 94% and 2.59 µM, respectively.

Take `O=c1c2c([nH]n1-c1ccc([N+](=O)[O-])cc1)C=C(c1ccc(F)cc1)CC2c1ccc(Cl)cc1` (stereo not drawn): the Activity in assay [1] was 0.95 mg/mL; in assay [2] it was 84.4%; in assay [3], 6.22 µM.

On to `O=c1c2c([nH]n1-c1ccc([N+](=O)[O-])cc1)C=C(c1ccc(F)cc1)CC2c1ccccc1` (stereo not drawn), for which the Activity in assay [1] worked out at 0.47 mg/mL; in assay [2] it was 89.6%; in assay [3], 0.69 µM.

For the compound `O=c1oc2c(O)c(O)cc3c(=O)oc4c(O)c(O)cc1c4c23`, in assay [1], the Activity came out at 0.105 mg/mL.

Turning to `O=c1c2c([nH]n1-c1ccc([N+](=O)[O-])cc1[N+](=O)[O-])C=C(c1ccc(F)cc1)CC2c1ccccc1` (stereo not drawn), the Activity in assay [1] was found to be 3.26 mg/mL; in assay [2] it was 4.21%; in assay [3], 16.2 µM.

`O=c1[nH][nH]c2c1C(c1ccc(Br)cc1)CC(c1ccc(F)cc1)=C2` (stereo not drawn): the Activity in assay [1] was 1.14 mg/mL; in assay [2], 16.2%; in assay [3], 1.17 µM.

Regarding `O=c1c2c([nH]n1-c1ccccc1)C=C(c1ccc(F)cc1)CC2c1ccccc1` (stereo not drawn), the Activity was 1.95 mg/mL in assay [1], 90.2% in assay [2] and 3.95 µM in assay [3].

With `O=c1c2c([nH]n1-c1ccccc1)C=C(c1ccc(F)cc1)CC2c1ccc(Br)cc1` (stereo not drawn), the Activity was 0.802 mg/mL in assay [1], 96.8% in assay [2] and 1.97 µM in assay [3].

As to `N[C@@H](CCC(=O)N[C@@H](CS)C(=O)NCC(=O)O)C(=O)O`, the Activity in assay [2] worked out at 92.1%.

Regarding `O=c1[nH][nH]c2c1C(c1ccc(Cl)cc1)CC(c1ccc(F)cc1)=C2` (stereo not drawn), the Activity in assay [1] came to 1.2 mg/mL; in assay [2], 17.9%; in assay [3] it was 8.4 µM.

With `O=c1c2c([nH]n1-c1ccc([N+](=O)[O-])cc1)C=C(c1ccc(F)cc1)CC2c1ccc(Br)cc1` (stereo not drawn), the Activity came out at 0.64 mg/mL in assay [1], 85.3% in assay [2] and 0.58 µM in assay [3].

For the compound `O=c1c2c([nH]n1-c1ccc([N+](=O)[O-])cc1[N+](=O)[O-])C=C(c1ccc(F)cc1)CC2c1ccc(Cl)cc1` (stereo not drawn), the Activity in assay [1] came to 0.75 mg/mL; in assay [2], 19.6%; in assay [3] it was 7.83 µM.
